What was measured:
[1] = test system: Klebsiella aerogenes SHV-1 1976E; assay: MIC, two-fold agar dilution; type: cell-based; details: Muller-Hinton agar, 37° C., 20 hours
E. coli TEM5 3739E = assay: MIC, two-fold agar dilution; type: cell-based; details: Muller-Hinton agar, 37° C., 20 hours
E. coli TEM7 3457E = assay: MIC, two-fold agar dilution; type: cell-based; details: Muller-Hinton agar, 37° C., 20 hours
[2] = test system: Staphylococcus aureus 241; assay: MIC, two-fold agar dilution; type: cell-based; details: Muller-Hinton agar, 37° C., 20 hours
[3] = test system: Staphylococcus aureus 6538P; assay: MIC, two-fold agar dilution; type: cell-based; details: Muller-Hinton agar, 37° C., 20 hours
[4] = test system: Enterobacter cloacae IND + VE 1194E; assay: MIC, two-fold agar dilution; type: cell-based; details: Muller-Hinton agar, 37° C., 20 hours
E. coli 851E = assay: MIC, two-fold agar dilution; type: cell-based; details: Muller-Hinton agar, 37° C., 20 hours
E. coli TEM9 2639E = assay: MIC, two-fold agar dilution; type: cell-based; details: Muller-Hinton agar, 37° C., 20 hours
[5] = test system: Citrobacter diversus 2046E; assay: MIC, two-fold agar dilution; type: cell-based; details: Muller-Hinton agar, 37° C., 20 hours
[6] = test system: Pseudomonas aeruginosa 10145; assay: MIC, two-fold agar dilution; type: cell-based; details: Muller-Hinton agar, 37° C., 20 hours
E. coli 3190Y = assay: MIC, two-fold agar dilution; type: cell-based; details: Muller-Hinton agar, 37° C., 20 hours
E. coli TEM3 3455E = assay: MIC, two-fold agar dilution; type: cell-based; details: Muller-Hinton agar, 37° C., 20 hours
[7] = test system: Serratia marcescens 1826E; assay: MIC, two-fold agar dilution; type: cell-based; details: Muller-Hinton agar, 37° C., 20 hours
[8] = test system: Salmonella typhimurium 14028A; assay: MIC, two-fold agar dilution; type: cell-based; details: Muller-Hinton agar, 37° C., 20 hours
[9] = test system: Klebsiella aerogenes K1 + 1082E; assay: MIC, two-fold agar dilution; type: cell-based; details: Muller-Hinton agar, 37° C., 20 hours
[10] = pharmakinetic variables in SD rats; details: rat, in vivo, iv, 20 mg/kg
Experimental: The pharmakinetic variables were determined using SD rats (.male.) of a body weight of 230±10g as follows. The "S" compound of each of the Examples was injected to femoral vein of 4-5 rats by 20mg/Kg and then blood was collected from femoral artery in 1, 2.5, 5, 10, 20, 40, 60 and 120 min.

E. coli TEM1 1193E = assay: MIC, two-fold agar dilution; type: cell-based; details: Muller-Hinton agar, 37° C., 20 hours
[11] = test system: Staphylococcus epidermidis 887E; assay: MIC, two-fold agar dilution; type: cell-based; details: Muller-Hinton agar, 37° C., 20 hours
E. coli 10536 = assay: MIC, two-fold agar dilution; type: cell-based; details: Muller-Hinton agar, 37° C., 20 hours
[12] = test system: Pseudomonas aeruginosa 1912E; assay: MIC, two-fold agar dilution; type: cell-based; details: Muller-Hinton agar, 37° C., 20 hours
[13] = test system: Staphylococcus aureus giorgio; assay: MIC, two-fold agar dilution; type: cell-based; details: Muller-Hinton agar, 37° C., 20 hours
[14] = test system: Streptococcus laecalis 29212A; assay: MIC, two-fold agar dilution; type: cell-based; details: Muller-Hinton agar, 37° C., 20 hours
[15] = test system: Pseudomonas aeruginosa 6065; assay: MIC, two-fold agar dilution; type: cell-based; details: Muller-Hinton agar, 37° C., 20 hours
Enterobacter cloacae P99 = assay: MIC, two-fold agar dilution; type: cell-based; details: Muller-Hinton agar, 37° C., 20 hours
Staphylococcus aureus 77 = assay: MIC, two-fold agar dilution; type: cell-based; details: Muller-Hinton agar, 37° C., 20 hours
Proteus vularis 6059A = assay: MIC, two-fold agar dilution; type: cell-based; details: Muller-Hinton agar, 37° C., 20 hours
[16] = test system: Acinetobacter calcoaceticus 15473A; assay: MIC, two-fold agar dilution; type: cell-based; details: Muller-Hinton agar, 37° C., 20 hours

SMILES	minimal inhibitory concentration (MIC) [1]	minimal inhibitory concentration (MIC) (E. coli TEM5 3739E)	minimal inhibitory concentration (MIC) (E. coli TEM7 3457E)	minimal inhibitory concentration (MIC) [2]	minimal inhibitory concentration (MIC) [3]	minimal inhibitory concentration (MIC) [4]	minimal inhibitory concentration (MIC) (E. coli 851E)	minimal inhibitory concentration (MIC) (E. coli TEM9 2639E)	minimal inhibitory concentration (MIC) [5]	minimal inhibitory concentration (MIC) [6]	minimal inhibitory concentration (MIC) (E. coli 3190Y)	minimal inhibitory concentration (MIC) (E. coli TEM3 3455E)	minimal inhibitory concentration (MIC) [7]	minimal inhibitory concentration (MIC) [8]	minimal inhibitory concentration (MIC) [9]	AUC at 2 h [10] [ng·h/mL]	half-life [10] [min]	minimal inhibitory concentration (MIC) (E. coli TEM1 1193E)	minimal inhibitory concentration (MIC) [11]	minimal inhibitory concentration (MIC) (E. coli 10536)	other results
Cc1c(N)nc(SCC2=C(C(=O)O)N3C(=O)[C@@H](NC(=O)/C(=N\O[C@H](C(=O)O)c4ccc(O)c(O)c4)c4csc(N)n4)[C@H]3SC2)nc1N [Compound I-2S, 7-[(Z)-2-(aminothiazol-4-yl)-2-(α-carboxyl-3,4-dihydroxybenzyloxyimino)acetamido]-3-(4,6-diamino-5-methylpyrimidine-2-yl)thiomethyl-3-cephem-4-carboxylate]	0.13	0.063	≤ 0.008	64	1	4	0.031	0.25	0.016	0.13	0.063	0.016	0.25	0.016	0.031	54100	55	0.031	16	≤ 0.008	minimal inhibitory concentration (MIC) [12]: 0.5; minimal inhibitory concentration (MIC) [13]: 1; minimal inhibitory concentration (MIC) [14]: 4; minimal inhibitory concentration (MIC) [15]: 0.25; minimal inhibitory concentration (MIC) (Enterobacter cloacae P99): 8; minimal inhibitory concentration (MIC) (Staphylococcus aureus 77): 4; minimal inhibitory concentration (MIC) (Proteus vularis 6059A): 0.13; minimal inhibitory concentration (MIC) [16]: 0.25
Nc1ccnc(SCC2=C(C(=O)O)N3C(=O)[C@@H](NC(=O)/C(=N\O[C@H](C(=O)O)c4ccc(O)c(O)c4)c4csc(N)n4)[C@H]3SC2)n1 [Compound I-3S, 7-[(Z)-2-(aminothiazol-4-yl)-2-(α-carboxyl-3,4-dihydroxybenzyloxyimino)acetamido]-3-(4-amino-pyrimidine-2-yl) thiomethyl-3-cephem-4-carboxylate]	0.13	0.063	0.063	128	2	2	0.063	0.25	0.031	0.13	0.031	0.016	0.25	0.016	0.031	57900	58	0.031	32	≤ 0.008	minimal inhibitory concentration (MIC) [12]: 0.25; minimal inhibitory concentration (MIC) [13]: 1; minimal inhibitory concentration (MIC) [14]: 4; minimal inhibitory concentration (MIC) [15]: 0.5; minimal inhibitory concentration (MIC) (Enterobacter cloacae P99): 8; minimal inhibitory concentration (MIC) (Staphylococcus aureus 77): 4; minimal inhibitory concentration (MIC) (Proteus vularis 6059A): 0.13; minimal inhibitory concentration (MIC) [16]: 0.13
Nc1nc(/C(=N/O[C@H](C(=O)O)c2ccc(O)c(O)c2)C(=O)N[C@@H]2C(=O)N3C(C(=O)O)=C(CSc4nc(N)c5c(n4)CCC5)CS[C@H]23)cs1 [Compound I-4S, 7-[(Z)-2-(aminothiazol-4-yl)-2-(α-carboxyl-3,4-dihydroxybenzyioxyimino)acetamido]-3-(4-amino-5,6-cyclopentapyrimidine-2-yl)thiomethyl-3-cephem-4-carboxylate]	0.13	0.063	≤ 0.008	64	1	2	0.031	0.25	0.063	0.13	0.031	0.016	0.25	0.016	0.031	55500	57	0.063	32	≤ 0.008	minimal inhibitory concentration (MIC) [12]: 0.25; minimal inhibitory concentration (MIC) [13]: 1; minimal inhibitory concentration (MIC) [14]: 4; minimal inhibitory concentration (MIC) [15]: 0.13; minimal inhibitory concentration (MIC) (Enterobacter cloacae P99): 8; minimal inhibitory concentration (MIC) (Staphylococcus aureus 77): 8; minimal inhibitory concentration (MIC) (Proteus vularis 6059A): 0.13; minimal inhibitory concentration (MIC) [16]: 0.13
Nc1nc(/C(=N/O[C@H](C(=O)O)c2ccc(O)c(O)c2)C(=O)N[C@@H]2C(=O)N3C(C(=O)O)=C(CSc4nc(N)c(N)c(N)n4)CS[C@H]23)cs1 [Compound I-5S, 7-[(Z)-2-(aminothiazol-4-yl)-2-(α-carboxy-3,4-dihydroxybenzyloxyimino)acetamido]-3-(4,5,6-triaminopyrimidine-2-yl)thiomethyl-3-cephem-4-carboxylate]	0.13	0.063	≤ 0.008	64	2	2	0.031	0.25	0.063	0.13	0.031	0.016	0.25	0.016	0.031	59500	59	0.031	32	≤ 0.008	minimal inhibitory concentration (MIC) [12]: 0.25; minimal inhibitory concentration (MIC) [13]: 1; minimal inhibitory concentration (MIC) [14]: 4; minimal inhibitory concentration (MIC) [15]: 0.25; minimal inhibitory concentration (MIC) (Enterobacter cloacae P99): 8; minimal inhibitory concentration (MIC) (Staphylococcus aureus 77): 8; minimal inhibitory concentration (MIC) (Proteus vularis 6059A): 0.13; minimal inhibitory concentration (MIC) [16]: 0.13
Nc1cc(SCC2=C(C(=O)O)N3C(=O)[C@@H](NC(=O)/C(=N\O[C@H](C(=O)O)c4ccc(O)c(O)c4)c4csc(N)n4)[C@H]3SC2)ncn1 [Compound I-7S, 7[-(Z)-2-(aminothiazol-4-yl)-2-(α-carboxy-3,4-dihydroxybenzyloxyimino)acetamido]-3-(6-amino-pyrimidine-4-yl)thiomethyl-3cephem-4-carboxylate]	0.25	0.063	0.016	64	2	2	0.063	0.13	0.063	0.25	0.031	0.016	0.25	0.016	0.063	60000	59	0.063	32	≤ 0.008	minimal inhibitory concentration (MIC) [12]: 0.25; minimal inhibitory concentration (MIC) [13]: 1; minimal inhibitory concentration (MIC) [14]: 2; minimal inhibitory concentration (MIC) [15]: 0.5; minimal inhibitory concentration (MIC) (Enterobacter cloacae P99): 8; minimal inhibitory concentration (MIC) (Staphylococcus aureus 77): 4; minimal inhibitory concentration (MIC) (Proteus vularis 6059A): 0.25; minimal inhibitory concentration (MIC) [16]: 0.13
